Patent US12209087B2, “AKT1 modulators” (Alterome Therapeutics, Inc., priority 2022, dated 2025)

Target: T1, full length AKT E17K (Homo sapiens, UniProt P31749, E17K)
T1 construct: host or cells: HEK-293 (ATCC CRL-1573)
Test: NanoBRET Target Engagement (TE) Assay
Assay type: cell-based
Details: competitive displacement of tracer in cells, read-out: AKT1 E17K IC50
In short: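 Compound and tracer incubated 2 h before luminescence at donor 450 nm and acceptor 600 nm, with extracellular signal inhibited. EC50 by sigmoidal variable-slope regression.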

T1 sequence (P31749 whole entry E17K): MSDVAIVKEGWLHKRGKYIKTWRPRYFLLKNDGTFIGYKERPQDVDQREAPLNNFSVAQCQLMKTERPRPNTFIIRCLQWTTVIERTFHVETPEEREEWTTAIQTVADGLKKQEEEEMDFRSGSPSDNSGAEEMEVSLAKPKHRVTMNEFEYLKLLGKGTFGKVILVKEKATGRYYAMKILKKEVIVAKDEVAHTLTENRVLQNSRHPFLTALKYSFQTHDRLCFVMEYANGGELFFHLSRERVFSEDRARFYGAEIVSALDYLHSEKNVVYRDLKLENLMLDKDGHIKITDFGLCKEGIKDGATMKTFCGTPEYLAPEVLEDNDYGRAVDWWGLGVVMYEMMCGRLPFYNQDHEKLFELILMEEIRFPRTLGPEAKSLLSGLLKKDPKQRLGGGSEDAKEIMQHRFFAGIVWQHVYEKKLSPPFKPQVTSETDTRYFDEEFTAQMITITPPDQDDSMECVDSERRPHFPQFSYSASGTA

Row | Structure (SMILES) | IC50
1 | N#Cc1nccc(NC2CCN(Cc3ccc(-n4c(-c5ccccc5N)nc5ccc(-c6ccc(F)cn6)nc54)cc3)CC2)n1 [Example 576, 4-((1-(4-(2-(2-Aminophenyl)-5-(5-fluoropyridin-2-yl)-3H-imidazo[4,5-b]pyridin-3-yl)benzyl)piperidin-4-yl)amino)pyrimidine-2-carbonitrile] | 15 to 60 nM
2 | N#Cc1nccc(NC2CCN(Cc3ccc(-n4c(-c5ccccc5)nc5ccc(-c6ccc(F)cn6)nc54)cc3)CC2)n1 [Example 577, 4-((1-(4-(5-(5-Fluoropyridin-2-yl)-2-phenyl-3H-imidazo[4,5-b]pyridin-3-yl)benzyl)piperidin-4-yl)amino)pyrimidine-2-carbonitrile] | 15 to 60 nM
3 | [2H]C([2H])([2H])Oc1ccc(-c2ccc3nc(-c4cccnc4N)n(-c4ccc(CN5CCC(Nc6ccnc(C#N)n6)CC5)cc4)c3n2)nc1 [Example 578, 4-((1-(4-(2-(2-Aminopyridin-3-yl)-5-(5-(methoxy-d)pyridin-2-yl)-3H-imidazo[4,5-b]pyridin-3-yl)benzyl)piperidin-4-yl)amino)pyrimidine-2-carbonitrile] | < 15 nM
4 | N#Cc1nccc(NC2CCN(Cc3ccc(-n4c(-c5cccnc5N)nc5ccc(-c6ccc(OC(F)F)cn6)nc54)cc3)CC2)n1 [Example 579, 4-((1-(4-(2-(2-Aminopyridin-3-yl)-5-(5-(difluoromethoxy)pyridin-2-yl)-3H-imidazo[4,5-b]pyridin-3-yl)benzyl)piperidin-4-yl)amino)pyrimidine-2-carbonitrile] | < 15 nM
5 | N#Cc1nccc(NC2CCN(Cc3ccc(-n4c(-c5cccnc5N)nc5ccc(-c6ccc(OCF)cn6)nc54)cc3)CC2)n1 [Example 580, 4-((1-(4-(2-(2-Aminopyridin-3-yl)-5-(5-(fluoromethoxy)pyridin-2-yl)-3H-imidazo[4,5-b]pyridin-3-yl)benzyl)piperidin-4-yl)amino)pyrimidine-2-carbonitrile] | < 15 nM
6 | COc1cnc(-c2ccc3nc(-c4cccnc4N)n(-c4ccc(CN5CCC(Nc6ccnc(C#N)n6)CC5)cc4)c3n2)nc1 [Example 581, 4-((1-(4-(2-(2-Aminopyridin-3-yl)-5-(5-methoxypyrimidin-2-yl)-3H-imidazo[4,5-b]pyridin-3-yl)benzyl)piperidin-4-yl)amino)pyrimidine-2-carbonitrile] | 15 to 60 nM
7 | Cc1cnc(-c2ccc3nc(-c4cccnc4N)n(-c4ccc(CN5CCC(Nc6ccnc(C#N)n6)CC5)cc4)c3n2)cn1 [Example 582, 4-((1-(4-(2-(2-Aminopyridin-3-yl)-5-(5-methylpyrazin-2-yl)-3H-imidazo[4,5-b]pyridin-3-yl)benzyl)piperidin-4-yl)amino)pyrimidine-2-carbonitrile] | < 15 nM
8 | COc1cnc(-c2ccc3nc(-c4cccnc4N)n(-c4ccc(CN5CCC(Nc6ccnc(C#N)n6)CC5)cc4)c3n2)cn1 [Example 583, 4-((1-(4-(2-(2-Aminopyridin-3-yl)-5-(5-methoxypyrazin-2-yl)-3H-imidazo[4,5-b]pyridin-3-yl)benzyl)piperidin-4-yl)amino)pyrimidine-2-carbonitrile] | < 15 nM
9 | CCOc1ccc(-c2ccc3nc(-c4cccnc4N)n(-c4ccc(CN5CCC(Nc6ccnc(C#N)n6)CC5)cc4)c3n2)cn1 [Example 584, 4-((1-(4-(2-(2-Aminopyridin-3-yl)-5-(6-ethoxypyridin-3-yl)-3H-imidazo[4,5-b]pyridin-3-yl)benzyl)piperidin-4-yl)amino)pyrimidine-2-carbonitrile] | < 15 nM

More lines, now with the values ahead:

Row | IC50 | Structure (SMILES)
10 | < 15 nM | N#Cc1nccc(NC2CCN(Cc3ccc(-n4c(-c5cccnc5N)nc5ccc(-c6ccc(OC7CC7)cn6)nc54)cc3)CC2)n1 [Example 585, 4-((1-(4-(2-(2-Aminopyridin-3-yl)-5-(5-cyclopropoxypyridin-2-yl)-3H-imidazo[4,5-b]pyridin-3-yl)benzyl)piperidin-4-yl)amino)pyrimidine-2-carbonitrile]
11 | < 15 nM | CC(C)Oc1ccc(-c2ccc3nc(-c4cccnc4N)n(-c4ccc(CN5CCC(Nc6ccnc(C#N)n6)CC5)cc4)c3n2)nc1 [Example 586, 4-((1-(4-(2-(2-Aminopyridin-3-yl)-5-(5-isopropoxypyridin-2-yl)-3H-imidazo[4,5-b]pyridin-3-yl)benzyl)piperidin-4-yl)amino)pyrimidine-2-carbonitrile]
12 | < 15 nM | N#Cc1nccc(NC2CCN(Cc3ccc(-n4c(-c5cccnc5N)nc5ccc(-c6ccc(C7CC7)nc6)nc54)cc3)CC2)n1 [Example 587, 4-((1-(4-(2-(2-Aminopyridin-3-yl)-5-(6-cyclopropylpyridin-3-yl)-3H-imidazo[4,5-b]pyridin-3-yl)benzyl)piperidin-4-yl)amino)pyrimidine-2-carbonitrile]
13 | 15 to 60 nM | Cc1nncn1-c1ccc2nc(-c3cccnc3N)n(-c3ccc(CN4CCC(Nc5ccnc(C#N)n5)CC4)cc3)c2n1 [Example 588, 4-((1-(4-(2-(2-aminopyridin-3-yl)-5-(3-methyl-4H-1,2,4-triazol-4-yl)-3H-imidazo[4,5-b]pyridin-3-yl)benzyl)piperidin-4-yl)amino)pyrimidine-2-carbonitrile]
14 | 15 to 60 nM | Cc1ncn(-c2ccc3nc(-c4cccnc4N)n(-c4ccc(CN5CCC(Nc6ccnc(C#N)n6)CC5)cc4)c3n2)n1 [Example 589, 4-((1-(4-(2-(2-aminopyridin-3-yl)-5-(3-methyl-1H-1,2,4-triazol-1-yl)-3H-imidazo[4,5-b]pyridin-3-yl)benzyl)piperidin-4-yl)amino)pyrimidine-2-carbonitrile]
15 | < 15 nM | N#Cc1nccc(NC2CCN(Cc3ccc(-n4c(-c5cccnc5N)nc5ccc(-n6cncn6)nc54)cc3)CC2)n1 [Example 590, 4-((1-(4-(2-(2-Aminopyridin-3-yl)-5-(1H-1,2,4-triazol-1-yl)-3H-imidazo[4,5-b]pyridin-3-yl)benzyl)piperidin-4-yl)amino)pyrimidine-2-carbonitrile]
16 | < 15 nM | N#Cc1nccc(NC2CCN(Cc3ccc(-n4c(-c5cccnc5N)nc5ccc(-n6ccnn6)nc54)cc3)CC2)n1 [Example 591, 4-((1-(4-(2-(2-Aminopyridin-3-yl)-5-(1H-1,2,3-triazol-1-yl)-3H-imidazo[4,5-b]pyridin-3-yl)benzyl)piperidin-4-yl)amino)pyrimidine-2-carbonitrile]
17 | < 15 nM | N#Cc1nccc(NC2CCN(Cc3ccc(-n4c(-c5cccnc5N)nc5ccc(-n6nccn6)nc54)cc3)CC2)n1 [Example 592, 4-((1-(4-(2-(2-Aminopyridin-3-yl)-5-(2H-1,2,3-triazol-2-yl)-3H-imidazo[4,5-b]pyridin-3-yl)benzyl)piperidin-4-yl)amino)pyrimidine-2-carbonitrile]
18 | < 15 nM | Cc1cn(-c2ccc3nc(-c4cccnc4N)n(-c4ccc(CN5CCC(Nc6ccnc(C#N)n6)CC5)cc4)c3n2)nn1 [Example 593, 4-((1-(4-(2-(2-Aminopyridin-3-yl)-5-(4-methyl-1H-1,2,3-triazol-1-yl)-3H-imidazo[4,5-b]pyridin-3-yl)benzyl)piperidin-4-yl)amino)pyrimidine-2-carbonitrile]
19 | < 15 nM | N#Cc1nccc(NC2CCN(Cc3ccc(-n4c(-c5cccnc5N)nc5ccc(-c6cocn6)nc54)cc3)CC2)n1 [Example 594, 4-((1-(4-(2-(2-Aminopyridin-3-yl)-5-(oxazol-4-yl)-3H-imidazo[4,5-b]pyridin-3-yl)benzyl)piperidin-4-yl)amino)pyrimidine-2-carbonitrile]
